In US20040232089A1, “Biocidal compounds for treating water” (VANETTA S.p.A., priority 2003, published 2004):

Assays:
[1] = Photo-degradability under daylight and UV; type: physicochemical; conditions: 10 ppm in drinking water (pH 6,5-7,5)
Experimental: Similarly, the same behaviour is confirmed when evaluating the photo-degradability under daylight and UV (the irradiation test is carried out on a solution of 10 ppm in drinking water (pH 6,5-7,5)).

[2] = Hydrolysis test carried out in the dark; type: physicochemical
Text: From the hydrolysis test carried out in the dark, MNB and MPB appear to be readily degradable at a pH compatible with environmental conditions.

[3] = Text: As reminded often, the water solubility is an essential feature for the candidate biocide to be used successfully in the biological control of water.
[4] = Biodegradability OECD 301 A (92/69/EEC C4-A); conditions: 7 days after the beginning of the test
Experimental: In fact, based on data available with respect to the most similar compounds to the menadione derivatives disclosed herein, one would expect a degradability in the range of 0% (percentage calculated based on the initial mass expressed in mg/l) typical of menadione (2-methyl-1,4-naphthalenedione) and 17% (assessed after 28 days) typical of menadione sodium bisulphite (which calculation was performed in accordance with the guidelines OECD301 A attached to directive EEC 92/69/EEC C4-A).
Finally biodegradability was also evaluated according to standard 92/69/EEC C4-A. From the data, both MNB and MPB result to have a remarkably better biodegradability than 2-methyl-1,4-naphthalenedione and particularly than MSB.

Structure (SMILES)	Light exp. Tot Degr. [1] [h]	½ LIFE (hydrolysis) ([2]; pH 6, 8, in the dark) [h]	½ LIFE (hydrolysis) ([2]; pH 9, in the dark) [h]	Sol. in H2O [3]	Light exp. ½ life [1] [h]	degradability relative to that of MSB [4]
O=C1C=CC(=O)c2c(O)cccc21 [Juglone, 5-hydroxy-1,4-naphthalenedione, reference compound]	48	>288	15	–	–	–
CC1(S(=O)(=O)O)CC(=O)c2ccccc2C1=O.Cc1cc(C)[nH]c(=O)n1 (centres unmarked) [MPB, menadione dimethylpyrimidinole bisulphite]	48	48	<3	10 gr/l	10	eight
CC1=CC(=O)c2ccccc2C1=O [Menadione, 2-methyl-1,4-naphthalenedione, reference compound]	>5000	1500	550	ins.	1500	–
